The test system of assay [1] is DIO mice. The assay is described as follows: Prevention of dysglycemia and insulin resistance in DIO B6 mice (oral gavage, 8 w). The format is in vivo. As to conditions: 100 mg/kg/day each, oral gavage. As to the method:
MATSUDA index was calculated via: […] […] All cell lines were lysed in 0.1 M Tris-HCl, pH 6.8, 2% SDS, 10 mM sodium fluoride (SIGMA #S7920), 10 mM β-glycerophosphate (SIGMA #G6376), and 1 mM sodium vanadate (SIGMA #72060) and supernatant collected after 1 minute at 14,000 rpm. Islets (human and mouse) were lysed in 0.1 M Tris-HCl, pH 6.8, 2% SDS, protease inhibitor (Roche #04 693 124 001) and phosphatase inhibitor (Roche #04 906 837 001). […] The supernatant was collected after 2 min at 14,000 rpm. This procedure was repeated until all fat was eliminated and the supernatant was clear, at 4° C. Samples were analysed on 4-15% polyacrylamide gels. Values were normalised toward AMPKα, β-Actin, GAPDH or the respective non-phosphorylated counterpart. For RNA purification calf muscle, iWAT, interscapular BAT, and left lateral liver lobe was crushed in a pestle using liquid nitrogen before turning to respective RNA kit. RNA from liver was prepared using Total RNA isolation Nucleospin II Kit (Macherey-Nagel #740955.50). RNA from adipose tissue was prepared using RNeasy Lipid Tissue Mini kit (Qiagen #74804). RNA from calf muscle tissue was prepared using RNeasy Fibrous Tissue Mini kit (Qiagen #74704). First strand cDNA synthesis was done using SuperScript III (First-Strand Synthesis SuperMix for qRT-PCR, Invitrogen #11752-250) according to the manufacturer's instructions. Total RNA was prepared from isolated islets using RNeasy Micro Kit (Qiagen #74004) and first strand cDNA synthesis was done using Superscript III (Invitrogen #18080-051) according to the manufacturer's instructions. Quantification of mRNA expression levels was performed essentially as previously described (Reference 3).

The subject of assay [2] is diet-induced obese C57BL/6J mice. As to the kind of experiment: Combination therapy AMPK activator + SGLT2 inhibitor in DIO mice. The format is in vivo. The settings on record: 2 weeks oral gavage, Compound 1 75 mg/kg, canagliflozin 10 mg/kg. Here is the method:
Male C57BL/6J mice, 8 weeks of age were purchased from Jackson, Charles River Laboratories, Inc. (Germany). All animals were housed in the Umeå University animal facility (Umeå Centre for Comparative Biology; UCCB) with a 12:12 hour light-dark cycle (lights on at 6 a.m.) and a constant temperature of 21° C. The animals were ear marked with a unique identification number, and groups of 5 mice were housed in transparent polycarbonate cages that comply with the requirements of the Code of Practice for the housing and care of animals used in scientific procedures. Wood chips were used as bedding material and environmental enrichment was provided. Animals were allowed to acclimate for 15 weeks to their new environment before the onset of the study. The animals were allowed ad libitum access to tap water throughout the accommodation and study period. During the acclimation period, the animals were allowed a standard pelleted diet (CRM (E) Rodent, Special Diets Services, Scanbur BK, Sweden). At the start of the study, the standard diet was changed to a very high fat diet (vHFD; Cat. No. D12492, Research Diets, Inc.) and this diet was kept throughout the whole study period. All of the procedures were approved by the Local Ethics Review Committee on Animal Experiments, Umeå Region.
23 Weeks old male C57BL/6J mice were fed HFD to promote diet-induced obesity (DIO) and administered once daily by oral gavage; vehicle (phosphate buffer pH 7.3, 2% w/v methyl cellulose; n=11), canagliflozin 10 mg/kg (n=14), Compound 1 at 75 mg/kg (n=14) and the combination of canagliflozin 10 mg/kg and Compound 1 at […] (n=15). After 2 weeks of treatment, fasted (6 hour) blood glucose and plasma insulin levels (determined in tail vein blood samples) were analysed. Food intake and weight were monitored throughout the study.
Blood samples were collected from the tail vein in Potassium-EDTA vials and plasma was separated by centrifugation and stored at −20° C. until assayed. Plasma insulin was determined with mouse insulin ELISA (Ultra Sensitive Mouse insulin ELISA Kit). Glucose concentrations were analysed in tail vein blood using a OneTouch® Ultra®2 Blood Glucose Meter (LifeScan, Inc).
Results shown in the figures are expressed as means±standard error of the mean (S.E.M.) for the number of animals per group. Statistical significance between the control group and the three treatment groups were analysed by Student's t-test, with P<0.05 considered statistically significant.

Assay [3] concerns AMPK in HeLa cells. The assay is described as follows: AMPK activation assay in HeLa cells (LKB1 null). Type of assay: cell-based, human. As to conditions: 1 μM, last 20 minutes. As to the method: All cell lines were lysed in 0.1 M Tris-HCl, pH 6.8, 2% SDS, 10 mM sodium fluoride (SIGMA #S7920), 10 mM β-glycerophosphate (SIGMA #G6376), and 1 mM sodium vanadate (SIGMA #72060) and supernatant collected after 1 minute at 14,000 rpm. Islets (human and mouse) were lysed in 0.1 M Tris-HCl, pH 6.8, 2% SDS, protease inhibitor (Roche #04 693 124 001) and phosphatase inhibitor (Roche #04 906 837 001). Right calf muscle, heart, iWAT, and interscapular BAT was crushed in a pestle using liquid nitrogen and homogenised in ice cold RIPA buffer (150 mM sodium chloride (SIGMA #S7653), 1.0% NP40 (USB), 0.5% sodium deoxycholate (SIGMA #D6750), 0.1% SDS, 50 mM Tris pH 8.0, 20 mM sodium pyrophosphate (SIGMA #71515), 10 mM sodium fluoride, 10 mM β-glycerolphosphate, 1 mM sodium vanadate and protease inhibitor cocktail (Roche #04693124001), 1 tablet/10 ml lysis buffer). The supernatant was collected after 2 min at 14,000 rpm. This procedure was repeated until all fat was eliminated and the supernatant was clear, at 4° C. Samples were analysed on 4-15% polyacrylamide gels. Values were normalised toward AMPKα, β-Actin, GAPDH or the respective non-phosphorylated counterpart.
Table 3 contains origin of cell lines, growth conditions and settings for activation of AMPK via the test material. […]

Assay [4] relates to muscle. As to conditions: in vivo; cited from earlier work.
Assay [5] relates to hypertensive rats. The settings on record: acute; cited from earlier work.

For the molecule `CN(C)C(=N)N=C(N)N` [Metformin, reference compound], in assay [1] (6 w), the “HFD-provoked increase in fasted glucose” value is “no significant effect” and the “HFD-provoked increase in fasted plasma insulin” value was “no significant effect”. In assay [1] (vs vehicle), the “insulin resistance (HOMA-IR)” value is recorded as “no significant effect”.

Consider `Cc1ccc([C@@H]2O[C@H](CO)[C@@H](O)[C@H](O)[C@H]2O)cc1Cc1ccc(-c2ccc(F)cc2)s1` [canagliflozin], for which, in assay [2], the HOMA-IR entry is listed as “lesser reduction”. Besides, in assay [2] (6 hour fast), the fasted blood glucose result is “lesser reduction” and the fasted plasma insulin entry was “lesser reduction”.

As to `C[C@H](CCC(=O)O)C[C@H](C)C[C@H](C)C(=O)/C=C(\O)[C@H](C)C[C@H](C)C/C=C/[C@@H](C)[C@@H](O)[C@@H](C)[C@@H](O)C[C@@H]1CC[C@@](C)([C@H]2CC[C@@](C)([C@@H](C)O)O2)O1` [ionomycin, reference compound], the “AMPK activation (control)” value in assay [3] is recorded as “readily activated AMPK”.

For `NC(=O)c1ncn([C@@H]2O[C@H](CO)[C@@H](O)[C@H]2O)c1N` [AICAR, 5-aminoimidazole-4-carboxyamide-1-β-D-ribofuranoside], the “microvascular perfusion in muscle” value in assay [4] is “increases microvascular perfusion in muscle”. The blood pressure entry in assay [5] was “acutely lower blood pressure”.

The record behind these values is US20220023269A1, “Methods Of Treating Diabetes In Severe Insulin-Resistant Diabetic Subjects” (Balticgruppen Bio AB, priority 2018, published 2022).
